This data set can be described thus: excess molar enthalpy (molar enthalpy of mixing); xn = mol fraction of the nth substance listed. To be noted: 100 kPa, Liquid, Calvet calorimetry.

Each structure is given as a SMILES string. Numbers after ± are expanded uncertainties.

Turning to `[Li]` [lithium] + [Zn], for the setting “1006 K, x2 = 0.0993”, the excess molar enthalpy was -0.526 ± 0.287 kcal/mol.
Take `[Zn]` [zinc] + [Ga]: the excess molar enthalpy was 0.191 ± 0.143 kcal/mol (813 K, x1 = 0.9); 0.12 ± 0.0478 kcal/mol (1017 K, x1 = 0.0996); 0.382 ± 0.0956 kcal/mol (1018 K, x1 = 0.5).

The record behind these values is the NIST ThermoML archive (doi:10.1016/j.tca.2017.10.004).
